From ChEMBL document CHEMBL4014318, “Rationalized Computer-Aided Design of Matrix-Metalloprotease-Selective Prodrugs” (J Med Chem, 2017) come the findings set out here.

Where a SMILES comes first, the peptide text is derived from it. [ ]: non-standard residue; d: D form. The star is where a group is joined. ξ: configuration not given here. X1 = COc1cccc2c1C(=O)c1c(O)c3c(c(O)c1C2=O)C[C@](O)(C(=O)CO)C[C@H]3O[C@@H]1C[C@@H](N*)[C@H](O)[C@@H](C)O1; X2 = COc1cccc2c1C(=O)c1c(O)c3c(c(O)c1C2=O)C[C@@](O)(C(=O)CO)C[C@@H]3O[C@H]1C[C@H](N*)[C@@H](O)[C@H](C)O1; Dnp = O=[N+]([O-])c1ccc(*)c([N+](=O)[O-])c1; ξhPhe = NC(CCc1ccccc1)C(=O)O; ξCha = NC(CC1CCCCC1)C(=O)O; Cbz = O=C(OCc1ccccc1)*; Bn = c1ccc(C*)cc1

A short description of data set [1]: Retention time of compound by LC-MS analysis.
Data set [2] has as its target T1, Matrix metalloproteinase-9 (Homo sapiens, UniProt P14780). The experiment in a line: Prodrug activation assessed as recombinant human MMP9-mediated Cbz-Glu-Pro-Leu-Gly formation at 10 uM after 12 hrs by LC-MS analysis.
Data set [3] concerns the target T1, Matrix metalloproteinase-9. The experiment in a line: Prodrug activation assessed as recombinant human MMP9-mediated Ser(O-benzyl)-Tyr-Leu-doxorubicin formation at 10 uM after 12 hrs by LC-MS analysis.
For data set [4], the target named is T2, 72 kDa type IV collagenase (Homo sapiens, UniProt P08253). The experiment in a line: Prodrug activation assessed as recombinant human MMP2-mediated Cbz-Glu-Pro-Leu-Gly formation at 10 uM after 12 hrs by LC-MS analysis.
T2 sequence (P08253 whole entry): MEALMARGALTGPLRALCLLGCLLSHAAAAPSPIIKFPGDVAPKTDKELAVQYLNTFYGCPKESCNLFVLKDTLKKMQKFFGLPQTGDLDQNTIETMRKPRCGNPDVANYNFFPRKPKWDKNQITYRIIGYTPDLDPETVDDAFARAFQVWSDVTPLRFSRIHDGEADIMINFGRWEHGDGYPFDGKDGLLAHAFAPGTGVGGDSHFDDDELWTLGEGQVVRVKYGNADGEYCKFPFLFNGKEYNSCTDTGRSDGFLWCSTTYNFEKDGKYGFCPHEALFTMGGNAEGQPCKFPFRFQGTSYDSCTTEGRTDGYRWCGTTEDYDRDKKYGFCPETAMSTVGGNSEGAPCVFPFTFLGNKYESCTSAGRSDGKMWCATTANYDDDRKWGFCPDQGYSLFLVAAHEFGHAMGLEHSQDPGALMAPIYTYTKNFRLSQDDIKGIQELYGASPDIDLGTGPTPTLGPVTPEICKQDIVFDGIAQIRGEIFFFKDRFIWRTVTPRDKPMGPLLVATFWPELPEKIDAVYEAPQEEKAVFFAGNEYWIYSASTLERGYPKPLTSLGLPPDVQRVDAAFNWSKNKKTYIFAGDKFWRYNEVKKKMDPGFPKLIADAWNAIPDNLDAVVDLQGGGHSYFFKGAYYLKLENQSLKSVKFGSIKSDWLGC
In data set [5] the target is T2, 72 kDa type IV collagenase. The experiment in a line: Prodrug activation assessed as recombinant human MMP2-mediated Ser(O-benzyl)-Tyr-Leu-doxorubicin formation at 10 uM after 12 hrs by LC-MS analysis.
The target of data set [6] is T3, Matrix metalloproteinase-14 (Homo sapiens, UniProt P50281). The experiment in a line: Prodrug activation assessed as recombinant human MMP14-mediated Cbz-Glu-Pro-Leu-Gly metabolite at 10 uM after 12 hrs by LC-MS analysis. In kind it is ADME.
The target of data set [7] is T3, Matrix metalloproteinase-14. The experiment in a line: Prodrug activation assessed as recombinant human MMP14-mediated Ser(O-benzyl)-Tyr-Leu-doxorubicin formation at 10 uM after 12 hrs by LC-MS analysis.
Data set [8] has as its system U-87 MG. The experiment in a line: Cytotoxicity against human U87MG cells assessed as reduction in cell survival after 96 hrs by MTT assay. In kind it is functional, cell-based, U-87MG ATCC. (Formazan colour is commonly taken as a measure of viable cells.)
In data set [9] the test system is U-87 MG. The experiment in a line: Cytotoxicity against human U87MG cells treated with MJ02 assessed as reduction in cell survival after 96 hrs by MTT assay. Type of data set: functional, cell-based, U-87MG ATCC.
Data set [10] concerns the target T2, 72 kDa type IV collagenase. The experiment in a line: Prodrug activation assessed as recombinant human MMP2-mediated Leu-doxorubicin formation at 10 uM after 12 hrs by LC-MS analysis.
Data set [11] concerns the target T2, 72 kDa type IV collagenase. The experiment in a line: Prodrug activation assessed as recombinant human MMP2-mediated Cbz-Gly-Pro-Ile-Gln-Glu-Hof formation at 10 uM after 12 hrs by LC-MS analysis.
In data set [12] the test system is U-87 MG. The experiment in a line: Cytotoxicity against human U87MG cells treated with MJ02 assessed as reduction in cell survival after 96 hrs in presence of MMP inhibitor GM6001 by MTT assay. Type of data set: functional, cell-based, U-87MG ATCC.
Data set [13] is described as follows: Prodrug activation in Balb/c immunodeficient nude mouse xenografted with human HT1080 cells assessed as half life for prodrug in tumor homogenates after 60 mins by LC-MS analysis. The following applies: tissue homogenate, 1 h. Type of data set: tissue-based, Neoplasm. A general note: A xenograft is tissue or cells of one species grown in another, often human tumour cells in immunodeficient mice.

A further data set has as its system Plasma. The experiment in a line: Prodrug activation in Balb/c immunodeficient nude mouse xenografted with human HT1080 cells assessed as half life for prodrug in plasma after 60 mins by LC-MS analysis. In kind it is cell-free. The following applies: 1 h.
In another data set the test system is Liver. The experiment in a line: Prodrug activation in Balb/c immunodeficient nude mouse xenografted with human HT1080 cells assessed as half life for prodrug in liver after 60 mins by LC-MS analysis. In kind it is tissue-based. The following applies: 1 h.
In the next data set the test system is Kidney. The experiment in a line: Prodrug activation in Balb/c immunodeficient nude mouse xenografted with human HT1080 cells assessed as half life for prodrug in kidney after 60 mins by LC-MS analysis. Type of data set: tissue-based. The following applies: 1 h.
The target of data set [14] is T1, Matrix metalloproteinase-9. The experiment in a line: Prodrug activation assessed as recombinant human MMP9-mediated compound cleavage at 10 uM after 12 hrs by LC-MS analysis.
The target in data set [15] is T3, Matrix metalloproteinase-14. The experiment in a line: Prodrug activation assessed as recombinant human MMP14-mediated compound cleavage at 10 uM after 12 hrs by LC-MS analysis.
Data set [16] can be described thus: Retention time of compound by RP-HPLC analysis.

T1 sequence (P14780 whole entry): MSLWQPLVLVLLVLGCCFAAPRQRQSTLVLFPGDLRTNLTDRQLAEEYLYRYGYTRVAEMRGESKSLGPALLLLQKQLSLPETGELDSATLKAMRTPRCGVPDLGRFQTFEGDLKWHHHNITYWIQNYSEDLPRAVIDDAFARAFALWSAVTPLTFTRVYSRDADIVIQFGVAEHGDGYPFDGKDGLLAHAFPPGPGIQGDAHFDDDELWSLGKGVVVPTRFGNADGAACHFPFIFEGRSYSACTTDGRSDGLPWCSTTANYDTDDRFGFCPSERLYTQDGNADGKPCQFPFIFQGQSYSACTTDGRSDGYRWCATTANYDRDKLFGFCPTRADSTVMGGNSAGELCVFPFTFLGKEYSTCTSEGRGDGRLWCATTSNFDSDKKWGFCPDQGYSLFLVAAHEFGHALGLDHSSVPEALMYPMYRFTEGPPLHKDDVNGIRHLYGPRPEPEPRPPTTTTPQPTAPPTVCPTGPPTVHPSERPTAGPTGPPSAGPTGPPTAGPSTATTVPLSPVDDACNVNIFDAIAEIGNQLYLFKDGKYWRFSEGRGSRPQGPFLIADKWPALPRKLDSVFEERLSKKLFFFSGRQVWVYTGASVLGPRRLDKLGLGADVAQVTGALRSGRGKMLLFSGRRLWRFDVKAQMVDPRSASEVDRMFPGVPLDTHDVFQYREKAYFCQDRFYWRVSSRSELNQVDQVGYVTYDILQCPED

For the compound `CC[C@H](C)[C@H](NC(=O)[C@@H]1CCCN1C(=O)CNC(=O)OCc1ccccc1)C(=O)N[C@@H](CCC(N)=O)C(=O)N[C@@H](CCC(=O)O)C(=O)NC(CCc1ccccc1)C(=O)O` (stereo partly specified) (Cbz-GPIQE[ξhPhe]-OH), in data set [1], the Retention time stood at 2.83 min.
Compound `CC(C)C[C@H](NC(=O)[C@@H]1CCCN1C(=O)[C@H](CCC(=O)O)NC(=O)OCc1ccccc1)C(=O)NCC(=O)O` (Cbz-EPLG-OH) yielded a Retention time in [1] of 2.87 min.
In data set [1], `COc1cccc2c1C(=O)c1c(O)c3c(c(O)c1C2=O)C[C@@](O)(C(=O)CO)C[C@@H]3O[C@H]1C[C@H](NC(=O)[C@H](CC(C)C)NC(=O)[C@H](Cc2ccc(O)cc2)NC(=O)[C@H](COCc2ccccc2)NC(=O)CNC(=O)[C@H](CC(C)C)NC(=O)[C@@H]2CCCN2C(=O)[C@H](CCC(=O)O)NC(=O)OCc2ccccc2)[C@@H](O)[C@H](C)O1` (Cbz-EPLGS(Bn)YL-X2) displayed a Retention time of 3.63 min. Moreover, the Drug metabolism entry in data set [2], in data set [3], in [4], in data set [5], in data set [6] and in data set [7] was “Metabolite_Detected” throughout.
Take `COc1cccc2c1C(=O)c1c(O)c3c(c(O)c1C2=O)C[C@@](O)(C(=O)CO)C[C@@H]3O[C@H]1C[C@H](NC(=O)[C@H](CC(C)C)NC(=O)[C@H](Cc2ccc(O)cc2)NC(=O)[C@@H](N)COCc2ccccc2)[C@@H](O)[C@H](C)O1`: in data set [1], the Retention time was 3.23 min.
The IC50 is the concentration that gives 50% inhibition. In the case of `COc1cccc2c1C(=O)c1c(O)c3c(c(O)c1C2=O)C[C@@](O)(C(=O)CO)C[C@@H]3O[C@H]1C[C@H](N)[C@H](O)[C@H](C)O1` [DOXORUBICIN], the IC50 in the data set with U-87 MG [8] came to 300 nM.
In the case of `CNc1ccccc1C(=O)NCCCC[C@H](NC(=O)[C@H](C)NC(=O)[C@H](Cc1c[nH]cn1)NC(=O)[C@H](N)CSC)C(N)=O`, the Retention time in data set [1] stood at 2.47 min.
In turn, `COc1cccc2c1C(=O)c1c(O)c3c(c(O)c1C2=O)C[C@@](O)(C(=O)CO)C[C@@H]3O[C@H]1C[C@H](NC(=O)[C@@H](N)CC(C)C)[C@H](O)[C@H](C)O1` [LEURUBICIN] yielded a Retention time in [1] of 2.08 min. The IC50 with U-87 MG [9] was found to be 600 nM.
Regarding `CC[C@H](C)[C@H](NC(=O)[C@@H]1CCCN1C(=O)CNC(=O)OCc1ccccc1)C(=O)N[C@@H](CCC(N)=O)C(=O)N[C@@H](CCC(=O)O)C(=O)NC(CCc1ccccc1)C(=O)N[C@@H](CC(C)C)C(=O)N[C@@H]1C[C@@H](O[C@@H]2C[C@@](O)(C(=O)CO)Cc3c(O)c4c(c(O)c32)C(=O)c2c(OC)cccc2C4=O)O[C@H](C)[C@H]1O` (stereo partly drawn) (Cbz-GPIQE[ξhPhe]L-X1), the Drug metabolism result is on record as “Metabolite_Detected” in data set [10], “Metabolite_Detected” in data set [11], “Metabolite_Notdetected” in data set [14] and “Metabolite_Notdetected” in data set [15]. The IC50 was 5000 nM in the data set on U-87 MG [8] and more than 100000 nM in the data set on U-87 MG [12]. Further, the t1/2 result in data set [13] is “>= 8.8 min”; in the data set with Plasma, more than 1.5 h; in the data set on Liver, “>= 17 min”; in the data set on Kidney, “>= 38.1 min”. The compound also registered a Retention time in data set [16] of 3.58 min.
As for `O=C(O)CNC(=O)C(CC1CCCCC1)NC(=O)[C@@H]1CCCN1c1ccc([N+](=O)[O-])cc1[N+](=O)[O-]` (stereo partly drawn) (Dnp-Pro-[ξCha]-Gly-OH), in data set [1], the Retention time came out at 2.3 min.
